Assay results taken from patent US20070270458A1 (priority 2003, published 2007).
pKd: −log10 of the molar value.

Target: α7 nAChR subtype (Rattus norvegicus, UniProt Q05941)
Type: binding

Sequence of α7 nAChR subtype (Q05941 23-502 limits assumed): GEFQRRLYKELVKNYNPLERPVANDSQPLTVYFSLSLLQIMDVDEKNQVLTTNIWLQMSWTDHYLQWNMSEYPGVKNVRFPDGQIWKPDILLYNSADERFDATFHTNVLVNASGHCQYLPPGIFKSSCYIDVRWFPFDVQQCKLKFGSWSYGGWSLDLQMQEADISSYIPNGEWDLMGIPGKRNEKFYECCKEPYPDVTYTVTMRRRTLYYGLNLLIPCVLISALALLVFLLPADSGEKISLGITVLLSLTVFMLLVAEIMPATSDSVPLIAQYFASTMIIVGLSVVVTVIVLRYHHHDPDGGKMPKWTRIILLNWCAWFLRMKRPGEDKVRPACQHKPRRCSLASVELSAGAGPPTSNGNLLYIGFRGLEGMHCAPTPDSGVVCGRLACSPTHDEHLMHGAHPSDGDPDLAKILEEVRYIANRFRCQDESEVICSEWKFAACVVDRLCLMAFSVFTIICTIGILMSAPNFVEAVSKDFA

^125I-α—Bungarotoxin [^125I-α-BTX]
pKd: 8.78
